# Laboratory results from ChEMBL document CHEMBL5214900, “Design, Synthesis, and Biological Evaluation of Membrane-Active Bakuchiol Derivatives as Effective Broad-Spectrum Antibacterial Agents” (J Med Chem, 2021).
# Test system: Staphylococcus aureus
# Experiment: Antibacterial activity against Staphylococcus aureus ATCC 29213 assessed as inhibition of bacterial growth incubated for 24 hrs by CLSI based broth dilution method
# Assay type: functional
# Details: not given
row,SMILES,MIC [µg/mL]
1,C=C[C@@](C)(/C=C/c1ccc(OCCCCN2CCSCC2)cc1)CCC=C(C)C,> 50
2,C=C[C@@](C)(/C=C/c1ccc(OCCCCNCCN(CCN)CCN)cc1)CCC=C(C)C,0.78

# Test system: Staphylococcus aureus
# Experiment: Antibacterial activity against methicillin-resistant Staphylococcus aureus N315 assessed as inhibition of bacterial growth incubated for 24 hrs by CLSI based broth dilution method
# Assay type: functional
# Details: not given
row,SMILES,MIC [µg/mL]
1,C=C[C@@](C)(/C=C/c1ccc(OCCCCN2CCSCC2)cc1)CCC=C(C)C,> 50
2,C=C[C@@](C)(/C=C/c1ccc(OCCCCNCCN(CCN)CCN)cc1)CCC=C(C)C,0.78

# Test system: Staphylococcus aureus
# Experiment: Antibacterial activity against methicillin-resistant Staphylococcus aureus NCTC10442 assessed as inhibition of bacterial growth incubated for 24 hrs by CLSI based broth dilution method
# Assay type: functional
# Details: not given
row,SMILES,MIC [µg/mL]
1,C=C[C@@](C)(/C=C/c1ccc(OCCCCN2CCSCC2)cc1)CCC=C(C)C,> 50
2,C=C[C@@](C)(/C=C/c1ccc(OCCCCNCCN(CCN)CCN)cc1)CCC=C(C)C,0.78

# Test system: Escherichia coli
# Experiment: Antibacterial activity against Escherichia coli ATCC 25922 assessed as inhibition of bacterial growth incubated for 24 hrs by CLSI based broth dilution method
# Assay type: functional
# Details: not given
row,SMILES,MIC [µg/mL]
1,C=C[C@@](C)(/C=C/c1ccc(OCCCCN2CCSCC2)cc1)CCC=C(C)C,> 100
2,C=C[C@@](C)(/C=C/c1ccc(OCCCCNCCN(CCN)CCN)cc1)CCC=C(C)C,3.12

# Test system: not listed separately
# Experiment: Hemolytic activity in rabbit RBC measured after 1 hrs by multimode reader assay
# Assay type: toxicity, cell-based, Oryctolagus cuniculus, Erythrocyte
# Details: rabbit red blood cells (erythrocytes)
row,SMILES,HC50 at 1 h [µg/mL]
1,C=C[C@@](C)(/C=C/c1ccc(OCCCCN2CCSCC2)cc1)CCC=C(C)C,> 200
2,C=C[C@@](C)(/C=C/c1ccc(OCCCCNCCN(CCN)CCN)cc1)CCC=C(C)C,32.9

# Test system: Pseudomonas aeruginosa
# Experiment: Antibacterial activity against Pseudomonas aeruginosa ATCC 9027 assessed as inhibition of bacterial growth incubated for 24 hrs by CLSI based broth dilution method
# Assay type: functional
# Details: not given
row,SMILES,MIC [µg/mL]
1,C=C[C@@](C)(/C=C/c1ccc(OCCCCNCCN(CCN)CCN)cc1)CCC=C(C)C,3.12

# Test system: Acinetobacter baumannii
# Experiment: Antibacterial activity against Acinetobacter baumannii ATCC 17978 assessed as inhibition of bacterial growth incubated for 24 hrs by CLSI based broth dilution method
# Assay type: functional
# Details: not given
row,SMILES,MIC [µg/mL]
1,C=C[C@@](C)(/C=C/c1ccc(OCCCCNCCN(CCN)CCN)cc1)CCC=C(C)C,6.25

# Test system: Acinetobacter baumannii
# Experiment: Antibacterial activity against Acinetobacter baumannii R2889 assessed as inhibition of bacterial growth incubated for 24 hrs by CLSI based broth dilution method
# Assay type: functional
# Details: not given
row,SMILES,MIC [µg/mL]
1,C=C[C@@](C)(/C=C/c1ccc(OCCCCNCCN(CCN)CCN)cc1)CCC=C(C)C,6.25

# Test system: Klebsiella pneumoniae
# Experiment: Antibacterial activity against Klebsiella pneumoniae ATCC 10031 assessed as inhibition of bacterial growth incubated for 24 hrs by CLSI based broth dilution method
# Assay type: functional
# Details: not given
row,SMILES,MIC [µg/mL]
1,C=C[C@@](C)(/C=C/c1ccc(OCCCCNCCN(CCN)CCN)cc1)CCC=C(C)C,1.56

# Test system: Klebsiella pneumoniae
# Experiment: Antibacterial activity against Klebsiella pneumoniae ATCC 14581 assessed as inhibition of bacterial growth incubated for 24 hrs by CLSI based broth dilution method
# Assay type: functional
# Details: not given
row,SMILES,MIC [µg/mL]
1,C=C[C@@](C)(/C=C/c1ccc(OCCCCNCCN(CCN)CCN)cc1)CCC=C(C)C,1.56

# Test system: not listed separately
# Experiment: Dissociation constant, pKa of compound by potentiometric titration method
# Assay type: physicochemical
# Details: not given
row,SMILES,pKa
1,C=C[C@@](C)(/C=C/c1ccc(OCCCCN2CCSCC2)cc1)CCC=C(C)C,8.41

# Test system: Staphylococcus aureus
# Experiment: Antibacterial activity against Staphylococcus aureus ATCC 29213 assessed as fold increase in MIC incubated for 24 hrs in presence of 140 mM Na+ by CLSI based broth dilution method
# Assay type: functional
# Details: not given
row,SMILES,fold change (FC)
1,C=C[C@@](C)(/C=C/c1ccc(OCCCCNCCN(CCN)CCN)cc1)CCC=C(C)C,<2

# Test system: Staphylococcus aureus
# Experiment: Antibacterial activity against Staphylococcus aureus ATCC 29213 assessed as fold increase in MIC incubated for 24 hrs in presence of 4.5 mM K+ by CLSI based broth dilution method
# Assay type: functional
# Details: not given
row,SMILES,fold change (FC)
1,C=C[C@@](C)(/C=C/c1ccc(OCCCCNCCN(CCN)CCN)cc1)CCC=C(C)C,<2

# Test system: Staphylococcus aureus
# Experiment: Antibacterial activity against Staphylococcus aureus ATCC 29213 assessed as fold increase in MIC incubated for 24 hrs in presence of 2.5 mM Ca2+ by CLSI based broth dilution method
# Assay type: functional
# Details: not given
row,SMILES,fold change (FC)
1,C=C[C@@](C)(/C=C/c1ccc(OCCCCNCCN(CCN)CCN)cc1)CCC=C(C)C,<2

# Test system: Staphylococcus aureus
# Experiment: Antibacterial activity against Staphylococcus aureus ATCC 29213 assessed as fold increase in MIC incubated for 24 hrs in presence of 1 mM Mg2+ by CLSI based broth dilution method
# Assay type: functional
# Details: not given
row,SMILES,fold change (FC)
1,C=C[C@@](C)(/C=C/c1ccc(OCCCCNCCN(CCN)CCN)cc1)CCC=C(C)C,<2

# Test system: Staphylococcus aureus
# Experiment: Antibacterial activity against Staphylococcus aureus NCTC10442 assessed as fold increase in MIC incubated for 24 hrs in presence of 140 mM Na+ by CLSI based broth dilution method
# Assay type: functional
# Details: not given
row,SMILES,fold change (FC)
1,C=C[C@@](C)(/C=C/c1ccc(OCCCCNCCN(CCN)CCN)cc1)CCC=C(C)C,<2

# Test system: Staphylococcus aureus
# Experiment: Antibacterial activity against Staphylococcus aureus NCTC10442 assessed as fold increase in MIC incubated for 24 hrs in presence of 4.5 mM K+ by CLSI based broth dilution method
# Assay type: functional
# Details: not given
row,SMILES,fold change (FC)
1,C=C[C@@](C)(/C=C/c1ccc(OCCCCNCCN(CCN)CCN)cc1)CCC=C(C)C,<2

# Test system: Staphylococcus aureus
# Experiment: Antibacterial activity against Staphylococcus aureus NCTC10442 assessed as fold increase in MIC incubated for 24 hrs in presence of 2.5 mM Ca2+ by CLSI based broth dilution method
# Assay type: functional
# Details: not given
row,SMILES,fold change (FC)
1,C=C[C@@](C)(/C=C/c1ccc(OCCCCNCCN(CCN)CCN)cc1)CCC=C(C)C,<2

# Test system: Staphylococcus aureus
# Experiment: Antibacterial activity against Staphylococcus aureus NCTC10442 assessed as fold increase in MIC incubated for 24 hrs in presence of 1 mM Mg2+ by CLSI based broth dilution method
# Assay type: functional
# Details: not given
row,SMILES,fold change (FC)
1,C=C[C@@](C)(/C=C/c1ccc(OCCCCNCCN(CCN)CCN)cc1)CCC=C(C)C,<2

# Test system: Acinetobacter baumannii
# Experiment: Antibacterial activity against Acinetobacter baumannii ATCC 17978 assessed as fold increase in MIC incubated for 24 hrs in presence of 140 mM Na+ by CLSI based broth dilution method
# Assay type: functional
# Details: not given
row,SMILES,fold change (FC)
1,C=C[C@@](C)(/C=C/c1ccc(OCCCCNCCN(CCN)CCN)cc1)CCC=C(C)C,<2

# Test system: Acinetobacter baumannii
# Experiment: Antibacterial activity against Acinetobacter baumannii ATCC 17978 assessed as fold increase in MIC incubated for 24 hrs in presence of 4.5 mM K+ by CLSI based broth dilution method
# Assay type: functional
# Details: not given
row,SMILES,fold change (FC)
1,C=C[C@@](C)(/C=C/c1ccc(OCCCCNCCN(CCN)CCN)cc1)CCC=C(C)C,<2

# Test system: Acinetobacter baumannii
# Experiment: Antibacterial activity against Acinetobacter baumannii ATCC 17978 assessed as fold increase in MIC incubated for 24 hrs in presence of 2.5 mM Ca2+ by CLSI based broth dilution method
# Assay type: functional
# Details: not given
row,SMILES,fold change (FC)
1,C=C[C@@](C)(/C=C/c1ccc(OCCCCNCCN(CCN)CCN)cc1)CCC=C(C)C,<2

# Test system: Acinetobacter baumannii
# Experiment: Antibacterial activity against Acinetobacter baumannii ATCC 17978 assessed as fold increase in MIC incubated for 24 hrs in presence of 1 mM Mg2+ by CLSI based broth dilution method
# Assay type: functional
# Details: not given
row,SMILES,fold change (FC)
1,C=C[C@@](C)(/C=C/c1ccc(OCCCCNCCN(CCN)CCN)cc1)CCC=C(C)C,<2

# Test system: Escherichia coli
# Experiment: Antibacterial activity against Escherichia coli ATCC 25922 assessed as fold increase in MIC incubated for 24 hrs in presence of 140 mM Na+ by CLSI based broth dilution method
# Assay type: functional
# Details: not given
row,SMILES,fold change (FC)
1,C=C[C@@](C)(/C=C/c1ccc(OCCCCNCCN(CCN)CCN)cc1)CCC=C(C)C,<2

# Test system: Escherichia coli
# Experiment: Antibacterial activity against Escherichia coli ATCC 25922 assessed as fold increase in MIC incubated for 24 hrs in presence of 4.5 mM K+ by CLSI based broth dilution method
# Assay type: functional
# Details: not given
row,SMILES,fold change (FC)
1,C=C[C@@](C)(/C=C/c1ccc(OCCCCNCCN(CCN)CCN)cc1)CCC=C(C)C,<2

# Test system: Escherichia coli
# Experiment: Antibacterial activity against Escherichia coli ATCC 25922 assessed as fold increase in MIC incubated for 24 hrs in presence of 2.5 mM Ca2+ by CLSI based broth dilution method
# Assay type: functional
# Details: not given
row,SMILES,fold change (FC)
1,C=C[C@@](C)(/C=C/c1ccc(OCCCCNCCN(CCN)CCN)cc1)CCC=C(C)C,<2

# Test system: Escherichia coli
# Experiment: Antibacterial activity against Escherichia coli ATCC 25922 assessed as fold increase in MIC incubated for 24 hrs in presence of 1 mM Mg2+ by CLSI based broth dilution method
# Assay type: functional
# Details: not given
row,SMILES,fold change (FC)
1,C=C[C@@](C)(/C=C/c1ccc(OCCCCNCCN(CCN)CCN)cc1)CCC=C(C)C,<2
